# From ChEMBL document CHEMBL1142095, “Diminished ciprofloxacin-induced chondrotoxicity by supplementation with magnesium and vitamin E in immature rats” (Antimicrob Agents Chemother, 2007)
# System: Rattus norvegicus
# Assay: Reduction in incidence of 600 mg/kg, sc ciprofloxacin-induced cartilage lesions in vitamin E-enriched diet fed immature Wistar rat after 10 days
# Type: functional, organism-based
# Design: dose 600 mg/kg; scale not given: the % may be the effect or the level left
# Conditions: at 600 mg/kg
substance,measurement,value
VITAMIN E,Activity,41%
